The subject of the assay is MKN-45 human gastric adenocarcinoma xenograft. The assay is described as follows: MKN-45 xenograft study. To be noted: nude mice, oral gavage, after 14 days. The format is in vivo. As to the method: To evaluate the in vivo anti-cancer activity compounds of formula I, a MKN-45 human gastric adenocarcinoma xenograft was employed. Briefly, MKN-45 cells were obtained from the Japan Health Sciences Foundation and expanded in RPMI medium which was supplemented with 20% FBS, 1% PSG. The growth environment was maintained in an incubator with a 5% CO2 atmosphere at 37° C. Cells were harvested and re-suspended using 50% serum-free media and 50% Matrigel® to generate a stock concentration of 5×10^6 cells/mL.
Seven to 8 week old female Harlan nude mice (Hsd:AthymicNude-Fox1nu) were injected with 200 μL of cell suspension subcutaneously, just below the right axilla. All procedures carried out in this experiment were conducted in compliance with all the laws, regulations and guidelines of the National Institutes of Health (NIH). Treatment began when the mean tumor burden was approximately 150 mg. All mice were dosed with test compound by oral gavage. Body weights and tumor measurements were recorded three times weekly. Tumor burden (mg) was estimated from caliper measurements by the formula for the volume of a prolate ellipsoid assuming unit density as: Tumor burden (mg)=(L×W2)/2, where L and W were the respective orthogonal tumor length and width measurements (mm). […]

`CCOc1ccn(-c2ccc(F)cc2)c(=O)c1C(=O)Nc1cc(F)c(Oc2ccnc(-c3cnn(C)c3)c2)cc1F` [Example 2, N-(2,5-difluoro-4-(2-(1-methyl-1H-pyrazol-4-yl)pyridin-4-yloxy)phenyl)-4-ethoxy-1-(4-fluorophenyl)-2-oxo-1,2-dihydropyridine-3-carboxamide]: the “% T/C” value was found to be 19 % T/C (10 mg/kg twice daily) and 12 % T/C (30 mg/kg twice daily).

The values above are taken from patent US9012635B2, “Pyridone amides and analogs exhibiting anti-cancer and anti-proliferative activities” (Deciphera Pharmaceuticals, LLC, priority 2013, dated 2015).
